Experimental data reported in ChEMBL document CHEMBL4002623, “Synthesis and in vitro activity of dicationic indolyl diphenyl ethers as novel potent antibiotic agents against drug-resistant bacteria” (Bioorg Med Chem Lett, 2017).
In brackets after ≈: the same amount, converted by molar mass.

Tests used:
Staphylococcus aureus [1] = experiment: Antibacterial activity against methicillin-resistant Staphylococcus aureus ATCC 33591 by agar dilution method; format: functional
Salmonella typhi = experiment: Antibacterial activity against Salmonella typhi H901 by agar dilution method; format: functional, Salmonella enterica subsp. enterica serovar Typhi; conditions: Salmonella enterica
Morganella morganii = experiment: Antibacterial activity against Morganella morganii ATCC 25830 by agar dilution method; format: functional
[2] = Cytotoxicity against HEK293T cells after 48 hrs by MTS assay; format: cell-based, HEK-293T; conditions: human
Pseudomonas aeruginosa [3] = experiment: Antibacterial activity against Pseudomonas aeruginosa PAO1 by agar dilution method; format: functional
Enterococcus faecalis [4] = experiment: Antibacterial activity against vancomycin-resistant Enterococcus faecalis 09-9 by agar dilution method; format: functional
Klebsiella pneumoniae [5] = experiment: Antibacterial activity against extended-spectrum beta-lactamase-positive Klebsiella pneumoniae 09-25 by agar dilution method; format: functional
Serratia marcescens = experiment: Antibacterial activity against Serratia marcescens 41002 by agar dilution method; format: functional
Escherichia coli [6] = experiment: Antibacterial activity against extended-spectrum beta-lactamase-negative Escherichia coli ATCC 25922 by agar dilution method; format: functional
Enterococcus faecalis [7] = experiment: Antibacterial activity against vancomycin-sensitive Enterococcus faecalis 09-8 by agar dilution method; format: functional
Staphylococcus aureus [8] = experiment: Antibacterial activity against methicillin-sensitive Staphylococcus aureus 09-6 by agar dilution method; format: functional
Pseudomonas aeruginosa [9] = experiment: Antibacterial activity against Pseudomonas aeruginosa 09-14 by agar dilution method; format: functional
Klebsiella aerogenes = experiment: Antibacterial activity against Enterobacter aerogenes 45102 by agar dilution method; format: functional
Enterococcus faecium [10] = experiment: Antibacterial activity against vancomycin-sensitive Enterococcus faecium 09-10 by agar dilution method; format: functional
Klebsiella pneumoniae [11] = experiment: Antibacterial activity against extended-spectrum beta-lactamase-negative Klebsiella pneumoniae 7 by agar dilution method; format: functional
[12] = system: Staphylococcus epidermidis; experiment: Antibacterial activity against methicillin-sensitive Staphylococcus epidermidis 09-9 by agar dilution method; format: functional
Escherichia coli [13] = experiment: Antibacterial activity against extended-spectrum beta-lactamase-negative Escherichia coli 09-20 by agar dilution method; format: functional
Proteus mirabilis = experiment: Antibacterial activity against Proteus mirabilis 09-1 by agar dilution method; format: functional
[14] = system: Staphylococcus epidermidis; experiment: Antibacterial activity against methicillin-resistant Staphylococcus epidermidis 09-3 by agar dilution method; format: functional
Proteus vulgaris = experiment: Antibacterial activity against Proteus vulgaris ATCC 29905 by agar dilution method; format: functional
Enterococcus faecalis [15] = experiment: Antibacterial activity against vancomycin-sensitive Enterococcus faecalis ATCC 29212 by agar dilution method; format: functional
Citrobacter freundii = experiment: Antibacterial activity against Citrobacter freundii ATCC 43864 by agar dilution method; format: functional
Providencia rettgeri = experiment: Antibacterial activity against Providencia rettgeri ATCC 31052 by agar dilution method; format: functional
Staphylococcus aureus [16] = experiment: Antibacterial activity against methicillin-resistant Staphylococcus aureus 09-13 by agar dilution method; format: functional
Enterococcus faecalis [17] = experiment: Antibacterial activity against vancomycin-resistant Enterococcus faecalis ATCC 51299 by agar dilution method; format: functional
Klebsiella pneumoniae [18] = experiment: Antibacterial activity against extended-spectrum beta-lactamase-positive Klebsiella pneumoniae ATCC 700603 by agar dilution method; format: functional
Escherichia coli [19] = experiment: Antibacterial activity against extended-spectrum beta-lactamase-positive Escherichia coli 09-1 by agar dilution method; format: functional
Pseudomonas aeruginosa [20] = experiment: Antibacterial activity against Pseudomonas aeruginosa ATCC 27853 by agar dilution method; format: functional
Staphylococcus aureus [21] = experiment: Antibacterial activity against methicillin-sensitive Staphylococcus aureus ATCC 29213 by agar dilution method; format: functional
[22] = system: Acinetobacter calcoaceticus; experiment: Antibacterial activity against Acinetobacter calcoaceticus ATCC 19606 by agar dilution method; format: functional
Escherichia coli [23] = experiment: Antibacterial activity against extended-spectrum beta-lactamase-negative Escherichia coli 1515 by agar dilution method; format: functional
Staphylococcus aureus [24] = experiment: Antibacterial activity against methicillin-sensitive Staphylococcus aureus 15 by agar dilution method; format: functional
Enterobacter cloacae = experiment: Antibacterial activity against Enterobacter cloacae 45301 by agar dilution method; format: functional
[25] = system: Staphylococcus epidermidis; experiment: Antibacterial activity against methicillin-sensitive Staphylococcus epidermidis ATCC 12228 by agar dilution method; format: functional
Enterococcus faecium [26] = experiment: Antibacterial activity against vancomycin-resistant Enterococcus faecium ATCC 700221 by agar dilution method; format: functional
Klebsiella pneumoniae [27] = experiment: Antibacterial activity against extended-spectrum beta-lactamase-negative Klebsiella pneumoniae 09-8 by agar dilution method; format: functional
Klebsiella pneumoniae [28] = experiment: Antibacterial activity against Klebsiella pneumoniae ATCC BAA-2146 expressing NDM-1 by agar dilution method; format: functional
Enterococcus faecium [29] = experiment: Antibacterial activity against vancomycin-resistant Enterococcus faecium 05-8 by agar dilution method; format: functional

SMILES | MIC (Staphylococcus aureus [1]) [µg/mL] | MIC (Salmonella typhi) [µg/mL] | MIC (Morganella morganii) [µg/mL] | CC50 at 48 h [2] [µg/mL] | MIC (Pseudomonas aeruginosa [3]) [µg/mL] | MIC (Enterococcus faecalis [4]) [µg/mL] | MIC (Klebsiella pneumoniae [5]) [µg/mL] | MIC (Serratia marcescens) [µg/mL] | MIC (Escherichia coli [6]) [µg/mL] | MIC (Enterococcus faecalis [7]) [µg/mL] | MIC (Staphylococcus aureus [8]) [µg/mL] | MIC (Pseudomonas aeruginosa [9]) [µg/mL] | MIC (Klebsiella aerogenes) [µg/mL] | MIC (Enterococcus faecium [10]) [µg/mL] | MIC (Klebsiella pneumoniae [11]) [µg/mL] | MIC [12] [µg/mL] | MIC (Escherichia coli [13]) [µg/mL] | MIC (Proteus mirabilis) [µg/mL] | MIC [14] [µg/mL] | MIC (Proteus vulgaris) [µg/mL] | also measured
CC1CCN(C(=N)c2ccc3cc(-c4ccc(Oc5ccc(-c6cc7ccc(C(=N)N8CCC(C)CC8)cc7[nH]6)cc5)cc4)[nH]c3c2)CC1 | 16 (≈ 24.7 µM) | > 128 | > 128 | 3.2 (≈ 4.93 µM) | > 128 | 128 (≈ 197 µM) | > 128 | > 128 | > 128 | 128 (≈ 197 µM) | 16 (≈ 24.7 µM) | > 128 | > 128 | 128 (≈ 197 µM) | > 128 | 8 (≈ 12.3 µM) | > 128 | > 128 | 8 (≈ 12.3 µM) | > 128 | MIC (Enterococcus faecalis [15]): 64 µg/mL (≈ 98.6 µM); MIC (Citrobacter freundii): > 128 µg/mL; MIC (Providencia rettgeri): > 128 µg/mL; MIC (Staphylococcus aureus [16]): 16 µg/mL (≈ 24.7 µM); MIC (Enterococcus faecalis [17]): 128 µg/mL (≈ 197 µM); MIC (Klebsiella pneumoniae [18]): > 128 µg/mL; MIC (Escherichia coli [19]): > 128 µg/mL; MIC (Pseudomonas aeruginosa [20]): > 128 µg/mL; MIC (Staphylococcus aureus [21]): 16 µg/mL (≈ 24.7 µM); MIC [22]: > 128 µg/mL; MIC (Escherichia coli [23]): > 128 µg/mL; MIC (Staphylococcus aureus [24]): 16 µg/mL (≈ 24.7 µM); MIC (Enterobacter cloacae): > 128 µg/mL; MIC [25]: 4 µg/mL (≈ 6.16 µM); MIC (Enterococcus faecium [26]): 16 µg/mL (≈ 24.7 µM); MIC (Klebsiella pneumoniae [27]): > 128 µg/mL; MIC (Klebsiella pneumoniae [28]): > 128 µg/mL; MIC (Enterococcus faecium [29]): 128 µg/mL (≈ 197 µM)
N=C(c1ccc2cc(-c3ccc(Oc4ccc(-c5cc6ccc(C(=N)N7CCCC7)cc6[nH]5)cc4)cc3)[nH]c2c1)N1CCCC1 | 1 (≈ 1.69 µM) | 32 (≈ 54 µM) | 16 (≈ 27 µM) | 3.2 (≈ 5.4 µM) | > 128 | 32 (≈ 54 µM) | 64 to 128 (≈ 108 to 216 µM) | > 128 | 16 (≈ 27 µM) | 32 (≈ 54 µM) | 2 (≈ 3.37 µM) | > 128 | > 128 | 8 (≈ 13.5 µM) | 64 to 128 (≈ 108 to 216 µM) | 2 (≈ 3.37 µM) | 64 (≈ 108 µM) | 128 (≈ 216 µM) | 1 (≈ 1.69 µM) | 64 (≈ 108 µM) | MIC (Enterococcus faecalis [15]): 8 µg/mL (≈ 13.5 µM); MIC (Citrobacter freundii): 128 µg/mL (≈ 216 µM); MIC (Providencia rettgeri): > 128 µg/mL; MIC (Staphylococcus aureus [16]): 1 µg/mL (≈ 1.69 µM); MIC (Enterococcus faecalis [17]): 8 µg/mL (≈ 13.5 µM); MIC (Klebsiella pneumoniae [18]): 128 µg/mL (≈ 216 µM); MIC (Escherichia coli [19]): 64 µg/mL (≈ 108 µM); MIC (Pseudomonas aeruginosa [20]): > 128 µg/mL; MIC (Staphylococcus aureus [21]): 2 µg/mL (≈ 3.37 µM); MIC [22]: > 128 µg/mL; MIC (Escherichia coli [23]): 64 µg/mL (≈ 108 µM); MIC (Staphylococcus aureus [24]): 1 µg/mL (≈ 1.69 µM); MIC (Enterobacter cloacae): 64 µg/mL (≈ 108 µM); MIC [25]: 0.5 µg/mL (≈ 0.844 µM); MIC (Enterococcus faecium [26]): 2 µg/mL (≈ 3.37 µM); MIC (Klebsiella pneumoniae [27]): 64 µg/mL (≈ 108 µM); MIC (Klebsiella pneumoniae [28]): 64 to 128 µg/mL (≈ 108 to 216 µM); MIC (Enterococcus faecium [29]): 8 µg/mL (≈ 13.5 µM)
N=C(NC1CCC1)c1ccc2cc(-c3ccc(Oc4ccc(-c5cc6ccc(C(=N)NC7CCC7)cc6[nH]5)cc4)cc3)[nH]c2c1 | 64 (≈ 108 µM) | > 128 | > 128 | 32.6 (≈ 55 µM) | > 128 | 64 (≈ 108 µM) | > 128 | > 128 | > 128 | 64 (≈ 108 µM) | 64 (≈ 108 µM) | > 128 | > 128 | 64 (≈ 108 µM) | > 128 | 8 (≈ 13.5 µM) | > 128 | > 128 | 16 (≈ 27 µM) | > 128 | MIC (Enterococcus faecalis [15]): 64 µg/mL (≈ 108 µM); MIC (Citrobacter freundii): > 128 µg/mL; MIC (Providencia rettgeri): > 128 µg/mL; MIC (Staphylococcus aureus [16]): 64 µg/mL (≈ 108 µM); MIC (Enterococcus faecalis [17]): 64 µg/mL (≈ 108 µM); MIC (Klebsiella pneumoniae [18]): > 128 µg/mL; MIC (Escherichia coli [19]): > 128 µg/mL; MIC (Pseudomonas aeruginosa [20]): > 128 µg/mL; MIC (Staphylococcus aureus [21]): 64 µg/mL (≈ 108 µM); MIC [22]: > 128 µg/mL; MIC (Escherichia coli [23]): > 128 µg/mL; MIC (Staphylococcus aureus [24]): 64 µg/mL (≈ 108 µM); MIC (Enterobacter cloacae): > 128 µg/mL; MIC [25]: 8 µg/mL (≈ 13.5 µM); MIC (Enterococcus faecium [26]): 32 µg/mL (≈ 54 µM); MIC (Klebsiella pneumoniae [27]): > 128 µg/mL; MIC (Klebsiella pneumoniae [28]): > 128 µg/mL; MIC (Enterococcus faecium [29]): > 128 µg/mL
N=C(NC1CCCC1)c1ccc2cc(-c3ccc(Oc4ccc(-c5cc6ccc(C(=N)NC7CCCC7)cc6[nH]5)cc4)cc3)[nH]c2c1 | 64 (≈ 103 µM) | > 128 | > 128 | 28.9 (≈ 46.6 µM) | > 128 | 128 (≈ 206 µM) | > 128 | > 128 | > 128 | 128 (≈ 206 µM) | 128 (≈ 206 µM) | > 128 | > 128 | ≥ 128 | > 128 | 8 (≈ 12.9 µM) | > 128 | > 128 | 16 (≈ 25.8 µM) | > 128 | MIC (Enterococcus faecalis [15]): 128 µg/mL (≈ 206 µM); MIC (Citrobacter freundii): > 128 µg/mL; MIC (Providencia rettgeri): > 128 µg/mL; MIC (Staphylococcus aureus [16]): 64 µg/mL (≈ 103 µM); MIC (Enterococcus faecalis [17]): 128 µg/mL (≈ 206 µM); MIC (Klebsiella pneumoniae [18]): > 128 µg/mL; MIC (Escherichia coli [19]): > 128 µg/mL; MIC (Pseudomonas aeruginosa [20]): > 128 µg/mL; MIC (Staphylococcus aureus [21]): 128 µg/mL (≈ 206 µM); MIC [22]: > 128 µg/mL; MIC (Escherichia coli [23]): > 128 µg/mL; MIC (Staphylococcus aureus [24]): 128 µg/mL (≈ 206 µM); MIC (Enterobacter cloacae): > 128 µg/mL; MIC [25]: 8 µg/mL (≈ 12.9 µM); MIC (Enterococcus faecium [26]): ≥ 128 µg/mL; MIC (Klebsiella pneumoniae [27]): > 128 µg/mL; MIC (Klebsiella pneumoniae [28]): > 128 µg/mL; MIC (Enterococcus faecium [29]): > 128 µg/mL
